Test results as given in paper PMC9791066, “Investigations into the antibacterial effects and potential mechanism of gambogic acid and neogambogic acid” (Frontiers in Microbiology, 2022).
Like-named read-outs stand apart in the source and are kept apart here.

Key:
EfaUPPS (R42A) = molecular target: T1, EfaUPPS (R42A) (Enterococcus faecalis, UniProt Q831K9, R48A); experiment: Microscale thermophoresis binding assay, EfaUPPS R42A
T1 construct: His tag; made in house; host or cells: E. coli BL21(DE3)
T1 sequence (Q831K9 whole entry R48A): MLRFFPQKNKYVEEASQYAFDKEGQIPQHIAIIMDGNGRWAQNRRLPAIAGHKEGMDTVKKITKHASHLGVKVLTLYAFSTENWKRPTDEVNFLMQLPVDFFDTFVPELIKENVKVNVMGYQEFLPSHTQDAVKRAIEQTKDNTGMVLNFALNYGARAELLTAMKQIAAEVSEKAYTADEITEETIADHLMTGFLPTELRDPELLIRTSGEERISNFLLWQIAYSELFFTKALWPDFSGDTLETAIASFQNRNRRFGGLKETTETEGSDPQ
Protocol: To characterize the binding affinity between EfaUPPS and GA or NGA, the MST binding assay was performed as previously described ([Lin et al., 2020]). In brief, His-tagged EfaUPPS and site-directed mutated EfaUPPS were labeled with the NT- 647-NHS dye using the Monolith NTTM Protein Labeling Kit RED-NHS (NanoTemper Technologies). Two-fold serially diluted GA or NGA was mixed with 10 nM of labeled EfaUPPS or its derivatives in 10 μl of binding buffer (137 mM NaCl, 2.7 mM KCl, 10 mM Na2HPO4, 1.8 mM KH2PO4, and 0.05% Tween-20, pH 7.8), incubated for 15 min, at room temperature. And then, loaded the mixtures into NT.115 premium coated capillaries (NanoTemper Technologies). MST trace signals were collected from the IR laser on to off for about 20 s, under the 5% LED power and high MST power mode. The change of molecular thermophoresis was monitored by standardized fluorescence value Fnorm, and the binding curve was plotted according to the values of Fnorm. The formed complex affinity was analyzed by MO Affinity Analysis software version 2.3. Apparent dissociation constants (Kd) were calculated using nonlinear fitting assuming one specific binding site with the GraphPad Prism 7 software with the following formula: Y = B^∗Max X/KD + X.
(^∗ where BMax is the maximum theoretical specific binding; here BMax = 1).

[1] = system: E. coli BAS849 transformed with pQE80L or pQE80L-EfaUPPS variants; experiment: Ex-vivo growth inhibition assay; assay type: cell-based, Escherichia coli; details: compound at 8 μg/mL
Protocol: The E. faecalis ATCC29212 undecaprenyl pyrophosphate synthase genes, and the L91A and L146A mutation fragments were cloned into the BamH I and Hind III digested pQE80Lvector, respectively. The resulting plasmids were transformed into E. coli BAS849, respectively. The strain transformed with the empty vector pQE80L was used as a negative control. A single colony of each transformant was inoculated into LB broth supplemented with 100 μg/mL ampicillin and incubated at 200 rpm, 37°C overnight. After diluted the cultures to 7 × 10^5 CFU/mL by LB broth, 5 μl of each diluted cultures were dripped onto a LB agar plate supplemented with IPTG (0.5 mM), and GA or NGA (8 μg/mL) followed by cultivation at 37°C overnight, and then imaged. In the meantime, another 5 μl of each diluted cultures were diluted in 100 ul LB and coated on the relevant plates to check for bacterial CFUs.

[2] = molecular target: T2, Enterococcus faecalis UPPS (EfaUPPS), wild-type (Enterococcus faecalis, UniProt Q831K9); experiment: UPPS inhibition assay (enzyme-coupled fluorescence), wild-type EfaUPPS; assay type: biochemical
T2 construct: His tag; made in house; host or cells: E. coli BL21(DE3)
T2 sequence (Q831K9 whole entry): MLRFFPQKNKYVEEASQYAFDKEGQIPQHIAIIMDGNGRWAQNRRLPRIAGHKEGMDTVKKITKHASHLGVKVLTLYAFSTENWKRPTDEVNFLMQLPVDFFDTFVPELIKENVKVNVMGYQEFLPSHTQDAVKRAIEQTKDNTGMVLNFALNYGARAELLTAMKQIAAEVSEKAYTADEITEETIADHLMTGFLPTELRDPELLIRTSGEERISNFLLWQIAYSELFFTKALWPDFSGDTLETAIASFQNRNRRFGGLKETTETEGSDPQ
Protocol: Enterococcus faecalis undecaprenyl pyrophosphate synthase (EfaUPPS) recombination studies were performed as previously described ([Li et al., 2020]). Briefly, the full-length gene sequence of EfaUPPS was cloned into the NdeI and HindIII sites of pET28a vector under control of T7 promoter. The sequenced plasmid was then transformed into E. coli strain BL21(DE3) (Invitrogen) and the transformants were grown on LB broth media supplemented with 50 μg/mL kanamycin. A single colony of the transformant was then cultured in 100 mL of LB broth containing 50 μg/mL kanamycin overnight. The overnight cultures were inoculated into 1 L of LB broth containing 50 μg/mL kanamycin and continue to culture until reaching an OD600 of 0.8. Upon reaching the optimal growth states, the cultures were induced by addition of 1 mM isopropyl-β-D-thiogalactoside (IPTG), and then cultured at 16°C for 16 h. […]
The UPPS inhibition assay was carried out by measuring the fluorescence of the reaction mixture in a black 96-well microtiter plate (Corning, United States). […] The UPPS inhibitory activity was performed by calculating the fluorescence percentage through determining the fluorescence absorbance of reaction mixture at 316 and 456 nm. […]

EfaUPPS (L91A) = molecular target: T3, EfaUPPS (L91A) (Enterococcus faecalis, UniProt Q831K9, L97A); experiment: UPPS inhibition assay, EfaUPPS L91A mutant; assay type: biochemical; details: for effect of mutation on inhibitory effect of compound on EfaUPPS enzyme activity: L91A mutant compared with wild-type; for IC50 fold higher than that of the wild-type: L91A mutant vs wild-type (~3 μM)
T3 construct: His tag; made in house; host or cells: E. coli BL21(DE3)
T3 sequence (Q831K9 whole entry L97A): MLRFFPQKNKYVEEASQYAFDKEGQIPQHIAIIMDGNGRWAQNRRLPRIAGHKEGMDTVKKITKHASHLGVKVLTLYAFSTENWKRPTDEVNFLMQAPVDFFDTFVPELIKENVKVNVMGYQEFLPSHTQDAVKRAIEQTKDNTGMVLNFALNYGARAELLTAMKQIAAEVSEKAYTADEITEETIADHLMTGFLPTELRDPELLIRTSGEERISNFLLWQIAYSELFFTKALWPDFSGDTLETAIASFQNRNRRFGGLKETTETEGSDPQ
Protocol: The EfaUPPS site-directed mutagenesis was generated using QuikChange site-directed mutagenesis kit (Agilent) according to the manufacturer’s instructions. The purification of site-directed mutation was using a similar strategy as described above.
The UPPS inhibition assay was carried out by measuring the fluorescence of the reaction mixture in a black 96-well microtiter plate (Corning, United States). […] After the indicated incubation period, the reaction was terminated by the addition of 10 μl of 0.5 M EDTA solution. Transferred 50 μl of the reaction mixture into a new 96-well microtiter plate, and quenched with an equal volume of Master Reaction Mix (Pyrophosphate Assay Kit, Sigma-Aldrich, USA) for 30 min. The UPPS inhibitory activity was performed by calculating the fluorescence percentage through determining the fluorescence absorbance of reaction mixture at 316 and 456 nm. Data of UPPS inhibitory activities were plotted versus compound concentrations on a semi-log scale using GraphPad Prism7. All the results were the means of at least three biological replicates.

[3] = overexpression of wild-type EfaUPPS

Structure (SMILES) | Kd (EfaUPPS (R42A)) [µM] | growth of E. coli BAS849 ([1]; empty vector pQE80L) | growth of E. coli BAS849 [1, 3] | growth of E. coli BAS849 ([1]; pQE80L-EfaUPPS L91A) | growth of E. coli BAS849 ([1]; pQE80L-EfaUPPS L146A) | IC50 ([2]; WT EfaUPPS, 35 μM IPP, 5 μM FPP, read-out: IC50) [µM] | IC50 (EfaUPPS (L91A)) [µM] | effect of mutation on inhibitory effect of compound on EfaUPPS enzyme activity (EfaUPPS (L91A)) | IC50 fold higher than that of the wild-type (EfaUPPS (L91A)) | Kd fold higher than that of the wild-type (EfaUPPS (R42A); R42A vs wild-type) | IC50 [2] [µM]
CC(C)=CCC[C@]1(C)C=Cc2c(O)c3c(c(CC=C(C)C)c2O1)O[C@]12C(=C[C@@H]4C[C@H]1C(C)(C)O[C@@]2(C/C=C(/C)C(=O)O)C4=O)C3=O [GA, gambogic acid] | 40.5 ± 17.2 | completely inhibited | rescued the cell growth | moderate resistance | moderate resistance | 3.08 | ~30 | significantly decreased | about 10 fold |  | 
CC(C)=CCC[C@]1(C)CC(O)c2c(O)c3c(c(CC=C(C)C)c2O1)O[C@]12C(=C[C@@H]4C[C@H]1C(C)(C)O[C@@]2(C/C=C(/C)C(=O)O)C4=O)C3=O (stereo partly shown) [NGA, neogambogic acid] | 62.9 ± 25.4 | completely inhibited | rescued the cell growth | moderate resistance | moderate resistance |  | ~30 | significantly reduced | about 10 fold | about 10 fold | 3.07
